Reference: US12503432B2, “Ionizable lipids for nucleic acid delivery” (Global Life Sciences Solutions Canada ULC, priority 2019, dated 2025)
Each block holds one compound with its values, some of them ahead of it.

Experiments:
[1] = TNS fluorescence assay: experimental pKa of formulated lipid nanoparticles; assay type: physicochemical; conditions: experimental surface pKa of empty LNP, cationic lipid/DSPC/cholesterol/PEG-lipid (50/10/38.5/1.5)
Method: The pKa of each cationic lipid was determined in lipid nanoparticles using an assay based on fluorescence of 6-(p-Toluidino)-2-naphthalenesulfonic acid sodium salt (TNS, Sigma Aldrich), which is a fluorescent probe for the conformational state of proteins^5. Empty lipid nanoparticles comprising of cationic lipid/DSPC/cholesterol/PEG-lipid (50/10/38.5/1.5) in distilled water at a concentration of 3.125 mM total lipid are formulated using NanoAssemblr® Spark™, and were then was characterized for LNP quality on the Zetasizer™ using a 30× dilution with 1×PBS in the low volume cuvette. Lipid nanoparticles were further diluted 4× using distilled water to 0.781 mM total lipid. TNS was prepared as a 25 μM stock solution in distilled water. Then 6.4 μL of diluted LNP samples of 0.781 mM total lipid were mixed with 10 μL of diluted TNS to a final volume of 250 μL with buffer containing 10 mM HEPES, 10 mM MES, 10 mM NH4OAc and 130 mM NaCl where the pH ranged from 3 to 9 in 0.5 pH increments.
Samples were mixed thoroughly, and the fluorescence intensity was measured at room temperature in a BioTek™ Synergy™ H1 Hybrid Multi-Mode Monochromator™ Fluorescence Microplate Reader using excitation and emission wavelengths of 321 nm and 445 nm respectively. A sigmoidal best fit analysis was applied to the fluorescence data using GraphPad Prism™ software, and the pKa was measured as the pH at half-maximal fluorescence intensity.

[2] = LNP characterization: size and PDI by dynamic light scattering, mRNA encapsulation efficiency by RiboGreen assay; assay type: physicochemical
Method: Particle sizes and “polydispersity index” (PDI) of the lipid particle were measured by dynamic light scattering (DLS). PDI indicates the width of the particle distribution. This is a parameter calculated from a cumulative analysis of the (DLS)-measured intensity autocorrelation function assuming a single particle size mode and a single exponential fit to the autocorrelation function. […] The particles produced by mechanical micromixers such as the NanoAssemblr® Spark™ and NanoAssemblr® Benchtop (Precision NanoSystems Inc.) are substantially homogeneous in size assuming all other variables are neutral. A lower PDI indicates a more homogenous population of lipid particles. The Spark™ instrument is used in a screening setting to identify the lead compositions. Once the composition is selected, the lipid particle can be fine-tuned using the NanoAssemblr® Benchtop. Once the process parameters Flow Rate Ratio and Total Flow Rate is identified for the specific nanoparticle composition, the nanoparticle technology can be scaled up using the same process parameter values.
Lipid particles were also manufactured by a larger microfluidic mixer instrument, the NanoAssemblr® Ignite™ for testing. Briefly, 350 μL of mRNA was diluted using 100 mM sodium acetate buffer to the required concentration of 0.2 to 0.3 mg/mL. Lipid particle samples were then prepared by running both fluids, namely, nucleic acids in aqueous solvent and Lipid Mix in ethanol at a flow ratio of 3:1 and at a total flow rate of 12 ml/min in the microfluidic mixer. Following mixing in the microfluidic device, the post cartridge lipid nucleic acid particle sample was diluted into RNAse free tubes containing three to 40 volumes of phosphate buffered saline (PBS), pH 7.4. Ethanol was finally removed through dialysis in PBS, pH 7, or using Amicon™ centrifugal filters (Millipore, USA) at 3000 RPM, or using TFF systems. Once the required concentration was achieved, the lipid nucleic acid particles were filter sterilized using 0.2 μm filters in aseptic conditions. Final encapsulation efficiency was measured by the Ribogreen™ assay. Quant-iT™ RiboGreen® RNA Reagent and Kit (Invitrogen) following manufacturer directions.
Messenger RNA or plasmid nucleic acid therapeutic (NAT) as described below, was diluted using sodium acetate buffer to the required concentration. Lipid nucleic acid particle (LNAP) samples were then prepared by running both fluids using the NanoAssemblr® Spark instrument. Briefly, […] of nucleic acids in 100 mM sodium acetate buffer in a total volume of 32 μL was mixed with 16 μL of 37.5 mM lipid mix solution as required by the N/P ratios (4, 6, or 10 in illustrated examples). The microfluidically mixed lipid nucleic acid particles (LNAP) made in the instrument were immediately diluted down with 48 μL Ca++ and Mg++ free 1× PBS at pH 7.4 in the aqueous output well. These LNAP were immediately collected into microcentrifuge tubes containing 96 μL of the same buffer at pH 7.4. Encapsulation efficiency was measured by a modified Ribogreen™ assay (Quanti-iT RiboGreen™ RNA assay kit, Fisher). This information was used to establish the desired dosage.
After the lipid particles were made as described in Example 17, particle size (hydrodynamic diameter of the particles) was determined by Dynamic Light Scattering (DLS) using a ZetaSizer™ Nano ZS™ (Malvern Instruments, UK). He/Ne laser of 633 nm wavelength was used as the light source. Data were measured from the scattered intensity data conducted in backscattering detection mode (measurement angle=173). Measurements were an average of 10 runs of two cycles each per sample. Z-Average size was reported as the particle size, and is defined as the harmonic intensity averaged particle diameter. These LNP characteristics, as well as the results of the mRNA encapsulation efficiency for various Lipid Mixes are also described in the application are shown in Tables 4, 5 and 6. […]

C57BL/6 mice = assay: In vivo delivery of EPO-encoded mRNA LNP via intravenous route, serum EPO ELISA; parameters: key to EPO Protein expression: IV in mice: *: The number of asterix symbols indicates protein expression levels interpreted by the inventors from quantitative data; **: The number of asterix symbols indicates protein expression levels interpreted by the inventors from quantitative data; ***: The number of asterix symbols indicates protein expression levels interpreted by the inventors from quantitative data; ****: The number of asterix symbols indicates protein expression levels interpreted by the inventors from quantitative data; *****: The number of asterix symbols indicates protein expression levels interpreted by the inventors from quantitative data; *******: The number of asterix symbols indicates protein expression levels interpreted by the inventors from quantitative data; conditions: qualitative grade interpreted from quantitative data
Source text: Lipid Nanoparticles with the composition IL/DSPC/Cholesterol/PEG-DMG2000 (LM 02—see Table 3) were used to encapsulate recombinant human erythropoietin (EPO) encoded mRNA with 5-moU modifications [TriLink CleanCapo 5-moU EPO mRNA L7201]. To create the LNP, lipid mix in ethanol was microfluidically mixed with a low PH buffered solution of 5-moU EPO mRNA mixer at an N/P ratio of 6 using a NanoAssemblr® Ignite™ microfluidic mixer. The microfluidically mixed particles were downstream processed using Amicon® ultra 15 10 kDa MWCO units (EMD Millipore) filtration technique. The RNA loaded lipid particles were then characterized for size, PDI and Encapsulation Efficiency (EE). Size and PDI were measured using dynamic light scattering techniques described above, and nucleic acid encapsulation efficiency was calculated using a Quant-iT RiboGreen RNA assay as described supra, modified to use hEPO mNA as the standard instead if the standard RNA in the kit. The hydrodynamic diameter of these mRNA-LNPs was ˜70 nm with a PDI in the range of 0.02 to 0.1 and an encapsulation efficiency of ˜97.8%.
Animals were handled according to the Institutional Animal Care and Use Committee ethics protocols. For experiments, 6-8 week old C57BL/6 mice were purchased from Envigo (South Kent, WA, USA). For in vivo activity, female C57BL/6 mice were treated intravenously with EPO mRNA LNPs at specified dosages of 0.5-3 mg/Kg. Samples of 50-75 μL of blood were collected 6 h post administration via saphenous vein, and at regular time intervals of 24 h or 48 h.
After harvest, blood was immediately prepared to produce serum samples using standard techniques, and stored at −80 degrees C. Briefly, after collection, the blood was allowed to clot at room temperature for 15-30 minutes. The clot was removed by centrifuging the tubes at 1000-2000×g for 10 min at 4 degrees Celsius. The clear golden-yellow color supernatant was carefully removed and transferred to sterile screw-capped clear polypropylene tubes on ice. The serum was then stored, if necessary, at −80° C. until analysis.
Samples were thawed, then analyzed at appropriate dilutions for EPO protein expression and for cytokine/chemokine levels. The total serum EPO levels were evaluated using Quantikine® IVD EPO ELISA kit (Bio-Techne, Minneapolis, MN, USA).
Following i.v administration of a 0.5 mg/Kg dose of recombinant human EPO-encoded mRNA LNPs containing ionizable lipid MC3, PNI 121 or PNI 123 using the LM02 composition at N/P 6, EPO expression levels at 6 h (upper, FIG. 6) and at 24 h (lower, FIG. 6) in C56BL/6 mice were examined; hEPO protein was measured using Quantikine® IVD® ELISA Human Erythropoietin Immunoassay protocol.

[3] = 5-moU EPO encoded LNPs, IL:DSPC:cholesterol:DMG-PEG (50:10:38.5:1.5), N/P 6
[4] = OVA encoded LNPs, payload WT OVA, LM02, N/P 8
[5] = Table 4 LNPs, payload and lipid mix not stated

pKa [1]: 5.5
Compound: CC/C=C\CC1C(CC(=O)OCC(COC(=O)CCCCCCCC2CC2CCCCCCCC)OC(=O)CCCCCCCC2CC2CCCCCCCC)CCC1OC(=O)CCN(C)C (centres unmarked) [PNI 551]

Diameter (Z. ave, nm) [2, 3]: 73.6 nm | Encapsulation Efficiency (%) [2, 3]: 98.7% | Polydispersity Index (PDI) [2, 3]: 0.14 | pKa [1]: 6.31
Compound: CC/C=C\CC1C(CC(=O)OCC(COCCCCCCCCC2CC2CCCCCCCC)OCCCCCCCCC2CC2CCCCCCCC)CCC1OC(=O)CCCN(C)C (centres unmarked) [PNI 543]
EPO Protein expression: IV in mice (C57BL/6 mice): ***

Diameter (Z. ave, nm) [2, 3]: 64.8 nm | Encapsulation Efficiency (%) [2, 3]: 97.1% | Polydispersity Index (PDI) [2, 3]: 0.04 | Diameter (Z. ave, nm) [2, 4]: 74.9 nm | Encapsulation Efficiency (%) [2, 4]: 97.0% | Polydispersity Index (PDI) [2, 4]: 0.02 | Diameter (Z. ave, nm) [2, 5]: 61.7 nm | Encapsulation Efficiency (%) [2, 5]: 88.2% | Polydispersity Index (PDI) [2, 5]: 0.09 | pKa [1]: 5.56
Compound: CC/C=C\CC1C(CC(=O)OCC(COCCCCCCCC/C=C\C/C=C\CCCCC)OCCCCCCCC/C=C\C/C=C\CCCCC)CCC1OC(=O)CCN(C)C (centres unmarked) [PNI 128]
EPO Protein expression: IV in mice (C57BL/6 mice): ****

pKa [1]: 5.5
Compound: CCCCCCCCCCCCCCOCC(COC(=O)CC1CCC(OC(=O)CCN(C)C)C1CCCCC)OCCCCCCCCCCCCCC (centres unmarked) [PNI 548]

pKa [1]: 6.23
Compound: CC/C=C\CC1C(CC(=O)OCC(COCCCCCCCC/C=C\C/C=C\CCCCC)OCCCCCCCC/C=C\C/C=C\CCCCC)CCC1OC(=O)CN1CCN(C)CC1 (centres unmarked) [PNI 567]

pKa [1]: 5.48
Compound: CC/C=C\CC1C(CC(=O)OCC(COCCCCCCCC/C=C\C/C=C\CCCCC)OCCCCCCCC/C=C\C/C=C\CCCCC)CCC1OC(=O)C1CCN(C)C1 (centres unmarked) [PNI 135]

pKa [1]: 5.96
Compound: CC/C=C\CC1C(CC(=O)OCCC(CCCCCCCC/C=C\C/C=C\CCCCC)OC(=O)C(CCCCCC)CCCCCCCC)CCC1OC(=O)C1(C)CCN(C)CC1 (centres unmarked) [PNI 563]

Diameter (Z. ave, nm) [2, 3]: 88.0 nm | Encapsulation Efficiency (%) [2, 3]: 98.7% | Polydispersity Index (PDI) [2, 3]: 0.87 | pKa [1]: 4.31
Compound: CC/C=C\CC1C(CC(=O)OCC(COCCCCCCCC/C=C\C/C=C\CCCCC)OCCCCCCCC/C=C\C/C=C\CCCCC)CCC1OC(=O)Cc1cn(C)cn1 (centres unmarked) [PNI 143]

pKa [1]: 6.2
Compound: CC/C=C\CC1C(CC(=O)OCCC(CCCCCCCC/C=C\C/C=C\CCCCC)OC(=O)C(CCCCCC)CCCCCCCC)CCC1OC(=O)CCCN(C)C (centres unmarked) [PNI 510]

pKa [1]: 6.27
Compound: CC/C=C\CC1C(CC(=O)OCC(COC(=O)CCCCCCCC2CC2CCCCCCCC)OC(=O)CCCCCCCC2CC2CCCCCCCC)CCC1OC(=O)CCCN(C)C (centres unmarked) [PNI 515]

pKa [1]: 6.28
Compound: CC/C=C\CC1C(CC(=O)OCC(COC(=O)CCCCCCC/C=C\C/C=C\CCCCC)OC(=O)CCCCCCC/C=C\C/C=C\CCCCC)CCC1OC(=O)CCCN(C)C (centres unmarked) [PNI 269]

pKa [1]: 6.77
Compound: CCCCC/C=C\C/C=C\CCCCCCCCOCC(COC(=O)CC1CCC(OC(=O)CCCN(C)C)C1)OCCCCCCCC/C=C\C/C=C\CCCCC (centres unmarked) [PNI 148]

pKa [1]: 5.95
Compound: CC/C=C\CC1C(CC(=O)OCC(COCCCCCCCCCCCCCC)OCCCCCCCCCCCCCC)CCC1OC(=O)CCN(C)C (centres unmarked) [PNI 547]

pKa [1]: 5.42
Compound: CC/C=C\CC1C(CC(=O)OCCC(CCCCCCCC/C=C\C/C=C\CCCCC)OC(=O)C(CCCCCC)CCCCCCCC)CCC1OC(=O)CCN(C)C (centres unmarked) [PNI 552]

pKa [1]: 6.36
Compound: CC/C=C\CC1C(CC(=O)OCCC(CCCCCCCC)OC(=O)C(CCCCCC)CCCCCCCC)CCC1OC(=O)CCCN(C)C (centres unmarked) [PNI 562]
